Legend:
S. aureus [1] = test: Substantivity test on 100% cotton fabric, zone of inhibition (ZOI); type: cell-based; conditions: 600 ppm, dried on 100% cotton fabric, saliva added to plates
Method: 2. Substantivity tests on 100% cotton fabric using S. aureus as the microorganism/zone of inhibition (ZOI).
Both samples (600 ppm LAE.HCl and control) were applied to 100% cotton fabric at the same volumes and allowed to dry at room temperature. Samples were then placed in an agar plates inoculated with S. aureus and incubated. To these plates was added saliva from the same person to determine if either sample would produce a zone inhibition. A negative control was also run at the same time. Only the product of this invention gave a positive ZOI.

S. aureus [2] = test: Kill tests using S. aureus (SIK test); type: cell-based; conditions: LAE.HCl at 200 ppm versus a product containing 27% ethanol and 1890 ppm of essential oils
Method: One of the commercial products that was analyzed not only contains a large amount of ethanol, but contains three essential biocidal oils. Specifically it contains 900 ppm of eucalyptol, 490 ppm of Thymol, and 500 ppm of D-menthol, for a total of 1890 ppm of total active constituents. In contrast our invention is N^α-lauroyl-L-arginine-ethyl ester hydrochloride, also known as LAE.HCl, which is used as a preservative in the food and cosmetic industries. • 1. N^α—lauroyl-L-arginine-ethyl ester hydrochloride, (LAE.HCl) salt is naturally derived and metabolizes readily to L-arginine, an essential amino acid, lauric acid, and very low ppm amounts of ethanol. All degradation by products are found naturally in the body and are totally harmless. • 2. LAE.HCl has undergone extensive toxicity, and safety studies, and it is approved by the FDA and EPA for food and cosmetic industries. • 3. […] The formulation of our invention includes a natural sweetener xylitol. Xylitol is known to reduce cavities as well as inhibiting the adhesion of bacteria on enamel/dentin. The selection of xylitol has the above advantages over other natural or synthetic sweeteners. (“Science Daily”, Feb. 15, 2007) • 5. Substantivity product of this invention has been proven experimentally versus the existing commercial products resulting in longer-lasting efficacy, using a zone of inhibition tests
1. […]

SMILES: CCCCCCCCCCCC(=O)N[C@@H](CCCNC(=N)N)C(=O)OCC.Cl [LAE.HCl, N^α-lauroyl-L-arginine-ethyl ester hydrochloride]
- zone of inhibition (ZOI) (S. aureus [1]): positive ZOI
- kill (S. aureus [2]): comparable kill

— patent US20150053211A1, “Cleaning and safe mouth guard solution” (priority 2013, published 2015)
